Reference: PubChem BioAssay (NCI)
Where “and” joins values, the source holds several entries; their conditions need not be identical. Equal values may be shown once.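 These data come from cells grown in 96-well plates and exposed to compound for 48 hours at five concentrations. Here, GI50 denotes the concentration required for 50% inhibition of growth. TGI marks complete inhibition of growth.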

Legend:
Experiment in all cases: NCI-60 cell line screen, 48 h
PC-3 prostate = test system: PC-3 prostate
HOP-18 NSCLC = test system: HOP-18 NSCLC
RXF 393 renal = test system: RXF 393 renal
KM20L2 colon = test system: KM20L2 colon
MCF7 breast = test system: MCF7 breast
SK-MEL-2 melanoma = test system: SK-MEL-2 melanoma
RPMI-8226 leukemia = test system: RPMI-8226 leukemia
T-47D breast = test system: T-47D breast
DU-145 prostate = test system: DU-145 prostate
KM12 colon = test system: KM12 colon
CAKI-1 renal = test system: CAKI-1 renal
DMS 114 small cell lung = test system: DMS 114 small cell lung
MDA-MB-435 = test system: MDA-MB-435
A498 renal = test system: A498 renal
NCI/ADR-RES ovarian = test system: NCI/ADR-RES ovarian
LXFL 529 NSCLC = test system: LXFL 529 NSCLC
MDA-MB-231 breast = test system: MDA-MB-231 breast
HS 578T breast = test system: HS 578T breast
DMS 273 small cell lung = test system: DMS 273 small cell lung
K-562 leukemia = test system: K-562 leukemia
NCI-H522 lung = test system: NCI-H522 lung
OVCAR-5 ovarian = test system: OVCAR-5 ovarian
MDA-N = test system: MDA-N
M19-MEL melanoma = test system: M19-MEL melanoma
SNB-78 CNS = test system: SNB-78 CNS
HCT-15 colon = test system: HCT-15 colon
DLD-1 colon = test system: DLD-1 colon
HT29 colon = test system: HT29 colon

With `COc1ccc2c(c[n+](C)c3c4cc5c(cc4ccc23)OCO5)c1OC` the TGI (PC-3 prostate) was > 100 µM, the TGI (HOP-18 NSCLC) was 4.04 µM and the TGI (RXF 393 renal) was > 100 µM. For the same compound, the TGI (KM20L2 colon) was 3.15 µM, the TGI (MCF7 breast) was 79.6 µM and the TGI (SK-MEL-2 melanoma) was 3.54 µM. The TGI (RPMI-8226 leukemia) was > 100 µM, the TGI (T-47D breast) was > 100 µM and the TGI (DU-145 prostate) was > 100 µM. The GI50 (KM12 colon) was 2.1 µM and 9 µM, the TGI (CAKI-1 renal) was 3.63 µM and the TGI (DMS 114 small cell lung) was 4.71 µM. The TGI (MDA-MB-435) was 43.8 µM, the GI50 (A498 renal) was 9.16 µM and 73.7 µM and the TGI (A498 renal) was 21.9 µM and > 100 µM. For the same compound, the TGI (NCI/ADR-RES ovarian) was > 100 µM, the TGI (LXFL 529 NSCLC) was 3.35 µM and the TGI (MDA-MB-231 breast) was > 100 µM. For the same compound, the TGI (HS 578T breast) was > 100 µM, the TGI (DMS 273 small cell lung) was 3.72 µM and the GI50 (K-562 leukemia) was 3.8 µM and 34.1 µM. For the same compound, the TGI (K-562 leukemia) was > 100 µM, the TGI (NCI-H522 lung) was 3.64 µM and the GI50 (OVCAR-5 ovarian) was 2.49 µM and 22.8 µM. The TGI (MDA-N) was 44.5 µM, the TGI (M19-MEL melanoma) was 3.07 µM and the TGI (SNB-78 CNS) was 4.26 µM. For the same compound, the TGI (HCT-15 colon) was 17.5 µM and > 100 µM, the TGI (DLD-1 colon) was 3.08 µM and the GI50 (HT29 colon) was 1.78 µM and 5.12 µM.
